System: FL-SMN mRNA (SMN transcript containing exons 7 and 8)
Assay: Live-cell assay to measure changes in FL-SMN mRNA levels (qPCR) after exposure to the compounds
Type: cell-based, human
Details: fibroblasts derived from patients SMA (GM03813); 24 hours incubation
Method in brief: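 SMA patient fibroblasts (GM03813) in DMEM/10% FBS were treated with compound (0.1% DMSO final) for 24 h. FL-SMN and Δ7 mRNA were measured by RT-qPCR against oligo DNA standard curves and normalised to GAPDH. Values are % of the DMSO control, binned by asterisk from ≥100% to ≥180%.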

| SMILES | Percentage of increase (FL-SMN mRNA standardized against GAPDH, DMSO control set as 100%) |
| --- | --- |
| COCCN1CCN(c2ccc3nc(-c4cc5c(C)nc(C)cn5n4)[nH]c(=O)c3c2)CC1 [Example 82, 2-(4,6-dimethylpyrazolo[1,5-a]pyrazin-2-yl)-6-[4-(2-methoxyethyl)piperazin-1-yl]quinazolin-4(3H)-one] | ** (equal to or higher than 120% but lower than 150%) |
| Cc1nc2ccc(-c3ccc4nc(C5CCN(C6CC6)CC5)[nH]c(=O)c4c3)cc2o1 [Example 83, 2-(1-cyclopropylpiperidin-4-yl)-6-(2-methyl-1,3-benzoxazol-6-yl)quinazolin-4(3H)-one] | ** (equal to or higher than 120% but lower than 150%) |
| Cc1cn2cc(-c3ccc4nc(C5(C)CCN(C)CC5)[nH]c(=O)c4c3)ccc2n1 [Example 84, 2-(1,4-dimethylpiperidin-4-yl)-6-(2-methylimidazo[1,2-a]pyridin-6-yl)quinazolin-4(3H)-one] | * (equal to or higher than 100% but lower than 120%) |
| Cc1cn2cc(-c3ccc4nc(C5(F)CCN(C6CC6)CC5)[nH]c(=O)c4c3)cc(F)c2n1 [Example 85, 2-(4-fluoro-1-cyclopropylpiperidin-4-yl)-6-(8-fluoro-2-methylimidazo[1,2-a]pyridin-6-yl)quinazolin-4(3H)-one] | **** (equal to or higher than 180%) |
| Cc1cn2cc(-c3ccc4nc(C5(F)CCN(C)CC5)[nH]c(=O)c4c3)cc(F)c2n1 [Example 86, 2-(4-fluoro-1-methylpiperidin-4-yl)-6-(8-fluoro-2-methylimidazo[1,2-a]pyridin-6-yl)quinazolin-4(3H)-one] | *** (equal to or higher than 150% but lower than 180%) |
| COc1ccc(-c2cc(F)c3nc(C4CCN(C)CC4)[nH]c(=O)c3c2)cc1F [Example 87, 8-fluoro-6-(3-fluoro-4-methoxyphenyl)-2-(1-methylpiperidin-4-yl)quinazolin-4(3H7)-one] | **** (equal to or higher than 180%) |
| Cc1cn2cc(-c3cc(C)c4nc(C5(F)CCN(C)CC5)[nH]c(=O)c4c3)cc(F)c2n1 [Example 89, 6-(8-fluoro-2-methylimidazo[1,2-a]pyridin-6-yl)-2-(4-fluoro-1-methylpiperidin-4-yl)-8-methylquinazolin-4(3H4)-one] | **** (equal to or higher than 180%) |
| CCN1CCC(F)(c2nc3c(C)cc(-c4cc(F)c5nc(C)cn5c4)cc3c(=O)[nH]2)CC1 [Example 90, 2-(1-ethyl-4-fluoropiperidin-4-yl)-6-(8-fluoro-2-methylimidazo[1,2-a]pyridin-6-yl)-8-methylquinazolin-4(3H4)-one] | **** (equal to or higher than 180%) |
| Cc1cn2cc(-c3ccc4nc(C5(F)CCN(C(C)C)CC5)[nH]c(=O)c4c3)cc(F)c2n1 [Example 91, 2-(4-fluoro-1-isopropylpiperidin-4-yl)-6-(8-fluoro-2-methylimidazo[1,2-a]pyridin-6-yl)quinazolin-4(3H)-one] | **** (equal to or higher than 180%) |
| CCN1CCC(F)(c2nc3ccc(-c4cc(F)c5nc(C)cn5c4)cc3c(=O)[nH]2)CC1 [Example 92, 2-(1-Ethyl-4-fluoropiperidin-4-yl)-6-(8-fluoro-2-methylimidazo[1,2-a]pyridin-6-yl)quinazolin-4(3H)-one] | **** (equal to or higher than 180%) |
| Cc1cn2cc(-c3ccc4nc(C5(F)CCN(CC(F)F)CC5)[nH]c(=O)c4c3)cc(F)c2n1 [Example 93, 2-[1-(2,2-difluoroethyl)-4-fluoropiperidin-4-yl]-6-(8-fluoro-2-methylimidazo[1,2-a]pyridin-6-yl)quinazolin-4(3H)-one] | *** (equal to or higher than 150% but lower than 180%) |
| Cc1cn2cc(-c3cc(F)c4nc(C5(F)CCN(C)CC5)[nH]c(=O)c4c3)ccc2n1 [Example 94, 8-fluoro-2-(4-fluoro-1-methylpiperidin-4-yl)-6-(2-methylimidazo[1,2-a]pyridin-6-yl)quinazolin-4(3H)-one] | *** (equal to or higher than 150% but lower than 180%) |
| CCN1CCC(F)(c2nc3c(F)cc(-c4ccc5nc(C)cn5c4)cc3c(=O)[nH]2)CC1 [Example 95, 2-(1-ethyl-4-fluoropiperidin-4-yl)-8-fluoro-6-(2-methylimidazo[1,2-a]pyridin-6-yl)quinazolin-4(3H)-one] | *** (equal to or higher than 150% but lower than 180%) |
| Cc1cn2cc(-c3cc(F)c4nc(C5(F)CCN(C(C)C)CC5)[nH]c(=O)c4c3)ccc2n1 [Example 96, 8-fluoro-2-(4-fluoro-1-isopropylpiperidin-4-yl)-6-(2-methylimidazo[1,2-a]pyridin-6-yl)quinazolin-4(3H)-one] | *** (equal to or higher than 150% but lower than 180%) |
| Cc1cn2cc(-c3cc(F)c4nc(C5(F)CCN(C)CC5)[nH]c(=O)c4c3)cc(F)c2n1 [Example 97, 8-fluoro-6-(8-fluoro-2-methylimidazo[1,2-a]pyridin-6-yl)-2-(4-fluoro-1-methylpiperidin-4-yl)quinazolin-4(3H)-one] | **** (equal to or higher than 180%) |
| CCN1CCC(F)(c2nc3c(F)cc(-c4cc(F)c5nc(C)cn5c4)cc3c(=O)[nH]2)CC1 [Example 98, 2-(1-ethyl-4-fluoropiperidin-4-yl)-8-fluoro-6-(8-fluoro-2-methylimidazo[1,2-a]pyridin-6-yl)quinazolin-4(3H)-one] | **** (equal to or higher than 180%) |
| Cc1cn2cc(-c3cc(F)c4nc(C5(F)CCN(C(C)C)CC5)[nH]c(=O)c4c3)cc(F)c2n1 [Example 99, 8-fluoro-2-(4-fluoro-1-isopropylpiperidin-4-yl)-6-(8-fluoro-2-methylimidazo[1,2-a]pyridin-6-yl)quinazolin-4(3H)-one] | **** (equal to or higher than 180%) |
| CCN1CCC(F)(c2nc3c(C)cc(-c4cc(F)c5nc(C)cn5c4)nc3c(=O)[nH]2)CC1 [Example 100, 2-(1-ethyl-4-fluoropiperidin-4-yl)-6-(8-fluoro-2-methylimidazo[1,2-a]pyridin-6-yl)-8-methylpyrido[3,2-d]pyrimidin-4(3H)-one] | **** (equal to or higher than 180%) |
| Cc1cn2cc(-c3cc(C)c4nc(C5(F)CCN(C(C)C)CC5)[nH]c(=O)c4n3)cc(F)c2n1 [Example 101, 2-(4-fluoro-1-isopropylpiperidin-4-yl)-6-(8-fluoro-2-methylimidazo[1,2-a]pyridin-6-yl)-8-methylpyrido[3,2-d]pyrimidin-4(3H)-one] | *** (equal to or higher than 150% but lower than 180%) |
| Cc1cn2cc(-c3ccc4nc(C5(F)CCN(C6CC6)CC5)[nH]c(=O)c4n3)cc(F)c2n1 [Example 102, 2-(1-cyclopropyl-4-fluoropiperidin-4-yl)-6-(8-fluoro-2-methylimidazo[1,2-a]pyridin-6-yl)pyrido[3,2-d]pyrimidin-4(3H)-one] | ** (equal to or higher than 120% but lower than 150%) |
| Cc1cn2cc(-c3cc(C)c4nc(C5(F)CCN(C6CC6)CC5)[nH]c(=O)c4c3)cnc2n1 [Example 103, 2-(1-cyclopropyl-4-fluoropiperidin-4-yl)-6-(2-methylimidazo[1,2-a]pyrimidin-6-yl)-8-methylquinazolin-4(3H4)-one] | ** (equal to or higher than 120% but lower than 150%) |
| Cc1cn2cc(-c3cc4c(=O)[nH]c(C5(F)CCN(C6CC6)CC5)nc4cn3)cc(F)c2n1 [Example 104, 2-(1-cyclopropyl-4-fluoropiperidin-4-yl)-6-(8-fluoro-2-methylimidazo[1,2-a]pyridin-6-yl)pyrido[3,4-d]pyrimidin-4(3H)-one] | *** (equal to or higher than 150% but lower than 180%) |
| Cc1nc2c(F)cc(-c3ccc4nc(C5CCN(C6CC6)CC5)[nH]c(=O)c4n3)cc2o1 [Example 106, 2-(1-cyclopropylpiperidin-4-yl)-6-(4-fluoro-2-methyl-1,3-benzoxazol-6-yl)pyrido[3,2-d]pyrimidin-4(3H)-one] | ** (equal to or higher than 120% but lower than 150%) |
| Cc1nc2c(F)cc(-c3cc4c(=O)[nH]c(C5(F)CCN(C6CC6)CC5)nc4cn3)cc2o1 [Example 107, 2-(1-cyclopropyl-4-fluoropiperidin-4-yl)-6-(4-fluoro-2-methyl-1,3-benzoxazol-6-yl)pyrido[3,4-d]pyrimidin-4(3H)-one] | ** (equal to or higher than 120% but lower than 150%) |
| Cc1cn2cc(-c3cc4c(=O)[nH]c(C5(F)CCN(C)CC5)nc4cn3)cc(F)c2n1 [Example 108, 2-(4-fluoro-1-methylpiperidin-4-yl)-6-(8-fluoro-2-methylimidazo[1,2-a]pyridin-6-yl)pyrido[3,4-d]pyrimidin-4(3H)-one] | ** (equal to or higher than 120% but lower than 150%) |
